Assay [1] has as its target T1, Adenosine receptor A1 (Homo sapiens, UniProt P30542).
T1 sequence (P30542 whole entry): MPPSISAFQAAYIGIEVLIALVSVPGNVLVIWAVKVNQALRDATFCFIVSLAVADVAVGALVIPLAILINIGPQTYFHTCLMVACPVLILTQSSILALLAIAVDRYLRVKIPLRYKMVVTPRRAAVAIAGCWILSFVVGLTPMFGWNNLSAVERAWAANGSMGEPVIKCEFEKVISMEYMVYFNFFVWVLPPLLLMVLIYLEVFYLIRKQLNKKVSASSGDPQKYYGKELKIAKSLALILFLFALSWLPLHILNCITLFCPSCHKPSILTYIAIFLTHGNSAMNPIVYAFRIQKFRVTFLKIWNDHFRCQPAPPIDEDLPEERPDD
The assay can be described thus: Inhibition of [3H]DPCPX binding to human adenosine A1 receptor expressed in CHO cells. It is filed as cell-based.

Assay [2] addresses Adenosine receptors; A1 & A3 (Homo sapiens) (UniProt P30542+P0DMS8). Nature of the assay: Relative binding affinity for human adenosine A1 and A3 receptors. Format: protein assay.
The target in assay [3] is Adenosine receptors; A2a & A3 (Homo sapiens) (UniProt P0DMS8+P29274). Nature of the assay: Relative binding affinity for human adenosine A2a and A3 receptors. Format: protein assay.
For assay [4], the target named is Adenosine receptor A2a (Homo sapiens, UniProt P29274). The assay can be described thus: Inhibition of [3H]-ZM 241385 binding to human adenosine A2a receptor expressed in CHO cells. It is filed as cell-based.
Chain of Adenosine receptor A2a (P29274 whole entry): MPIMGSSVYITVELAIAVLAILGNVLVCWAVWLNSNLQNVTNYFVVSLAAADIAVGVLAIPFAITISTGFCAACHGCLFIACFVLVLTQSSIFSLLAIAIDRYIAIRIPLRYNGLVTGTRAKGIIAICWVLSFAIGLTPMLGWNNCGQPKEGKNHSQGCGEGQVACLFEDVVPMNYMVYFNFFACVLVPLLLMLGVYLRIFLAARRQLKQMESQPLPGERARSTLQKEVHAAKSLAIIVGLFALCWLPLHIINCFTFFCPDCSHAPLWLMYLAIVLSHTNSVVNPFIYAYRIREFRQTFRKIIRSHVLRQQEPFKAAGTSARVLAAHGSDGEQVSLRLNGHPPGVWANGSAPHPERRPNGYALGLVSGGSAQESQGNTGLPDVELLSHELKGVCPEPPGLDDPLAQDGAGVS
Assay [5] addresses Adenosine receptors; A2b & A3 (Homo sapiens) (UniProt P29275+P0DMS8). The assay can be described thus: Relative binding affinity for human adenosine A2b and A3 receptors. It is filed as protein assay.
For assay [6], the target named is T2, Adenosine receptor A2b (Homo sapiens, UniProt P29275).
T2 sequence (P29275 whole entry): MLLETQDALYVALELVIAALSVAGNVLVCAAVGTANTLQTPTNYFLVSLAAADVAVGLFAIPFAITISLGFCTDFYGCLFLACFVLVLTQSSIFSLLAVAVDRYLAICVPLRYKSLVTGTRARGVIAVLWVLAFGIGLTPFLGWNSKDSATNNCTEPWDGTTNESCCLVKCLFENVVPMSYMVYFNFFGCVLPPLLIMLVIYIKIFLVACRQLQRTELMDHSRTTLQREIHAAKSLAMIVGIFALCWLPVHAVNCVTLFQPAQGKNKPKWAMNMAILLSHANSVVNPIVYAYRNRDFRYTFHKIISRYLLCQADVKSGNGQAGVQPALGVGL
Nature of the assay: Inhibition of 100 nM NECA-stimulated cAMP production in CHO cells expressing human adenosine A2B receptor. Format: functional, cell-based.

Structures are written as SMILES.

Chain of Adenosine receptors; A1 & A3 (Homo sapiens) (P0DMS8 whole entry, looked up, one chain of several): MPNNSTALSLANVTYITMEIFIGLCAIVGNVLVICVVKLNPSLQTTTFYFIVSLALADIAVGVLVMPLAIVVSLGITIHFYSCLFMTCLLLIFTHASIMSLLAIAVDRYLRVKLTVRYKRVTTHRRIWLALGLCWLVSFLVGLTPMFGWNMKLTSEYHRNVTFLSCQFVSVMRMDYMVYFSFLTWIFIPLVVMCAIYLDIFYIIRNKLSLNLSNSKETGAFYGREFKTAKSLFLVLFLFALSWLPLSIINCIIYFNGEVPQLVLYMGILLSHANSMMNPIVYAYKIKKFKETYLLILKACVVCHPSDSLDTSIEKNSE

`CCCn1c(=O)c2c(nc3n2CC(c2ccccc2)=C3)n(Cc2ccccc2)c1=O`: the Ki in assay [1] and in assay [4] was over 1 µM throughout. Moreover, the Selectivity in assay [2] and in assay [3] was over 5 in each case.

With `CCCn1c(=O)c2c(nc3[nH]c(CC)cn32)n(Cc2ccccc2)c1=O`, the Selectivity in assay [5], in assay [2] and in assay [3] was over 67 in each case. Also, the Ki in assay [1] and in assay [4] was over 1 µM in each case. The IC50 in assay [6] was over 1 µM.

Take `CCCn1c(=O)c2c(nc3[nH]c(-c4ccc(-c5ccccc5)cc4)cn32)n(Cc2ccccc2)c1=O`: the Ki in assay [1] and in assay [4] was over 1 µM each time.

Regarding `CCCn1c(=O)c2c(nc3[nH]c(-c4ccccc4)cn32)n(Cc2ccccc2)c1=O`, the inhibitory constant (Ki) in assay [1] and in assay [4] was over 1 µM in each case. Besides, the Selectivity in assay [2] and in assay [3] was over 9 in each case.

In assay [6], `CCCn1c(=O)c2c(nc3[nH]c(C)cn32)n(Cc2ccccc2)c1=O` gave an IC50 of over 1 µM.

Take `CCCn1c(=O)c2c(nc3[nH]c(C(C)C)cn32)n(Cc2ccccc2)c1=O`: the Selectivity in assay [5] was over 32; in assay [2], over 15; in assay [3], over 32. In assay [4], the Ki was over 1 µM. The molecule further gave an IC50 in assay [6] of over 1 µM.

As for `CCCn1c(=O)c2c(nc3n2C(C)C(C)=C3)n(Cc2ccccc2)c1=O` (stereo not given), the Selectivity in assay [5], in assay [2] and in assay [3] was over 13 in each case. Moreover, the Ki in assay [1] and in assay [4] was over 1 µM each time. Besides, the IC50 in assay [6] is over 1 µM.

As for `CCCn1c(=O)c2c(nc3[nH]c(C)c(C)n32)n(Cc2ccccc2)c1=O`, the Selectivity in assay [5], in assay [2] and in assay [3] was over 28 throughout. Moreover, the Ki in assay [1] and in assay [4] was over 1 µM in each case. Further, the IC50 in assay [6] is over 1 µM.

`CCCn1c(=O)c2c(nc3[nH]c(-c4ccc(F)cc4)cn32)n(Cc2ccccc2)c1=O`: the Ki in assay [1] and in assay [4] was over 1 µM each time. In addition, the Selectivity in assay [2] and in assay [3] was over 45 in each case.

In the case of `CCCn1c(=O)c2c(nc3[nH]c(C4CC4)cn32)n(Cc2ccccc2)c1=O`, the Selectivity in assay [5] was over 44; in assay [2], 15; in assay [3] it was over 44. In addition, in assay [4], the Ki is over 1 µM. In assay [6], this molecule returned an IC50 of over 1 µM.

On to `CCCn1c(=O)c2c(nc3[nH]c(-c4ccc(OC)cc4)cn32)n(Cc2ccccc2)c1=O`, for which the Ki in assay [1] and in assay [4] was over 1 µM in each case. Besides, the Selectivity in assay [2] and in assay [3] was over 18 throughout.

Take `CCCn1c(=O)c2c(nc3[nH]c(C4CCCCC4)cn32)n(Cc2ccccc2)c1=O`: the Ki in assay [1] and in assay [4] was over 1 µM throughout. For the same molecule, the Selectivity in assay [2] and in assay [3] was over 2 each time. Also, in assay [6], the IC50 was over 1 µM.

For the molecule `CCCn1c(=O)c2c(nc3[nH]c(C(C)(C)C)cn32)n(Cc2ccccc2)c1=O`, the Selectivity in assay [5], in assay [2] and in assay [3] was over 10 throughout. Besides, the Ki in assay [1] and in assay [4] was over 1 µM each time. The molecule also gave an IC50 in assay [6] of over 1 µM.

On to `CCCn1c(=O)c2c(nc3n2CC(CC)=C3)n(Cc2ccccc2)c1=O`, for which the IC50 in assay [6] was over 1 µM.

Turning to `CCCn1c(=O)c2c(nc3n2CC(C)=C3)n(Cc2ccccc2)c1=O`, the Selectivity in assay [5] was 50; in assay [2], over 125; in assay [3], over 125. Moreover, the Ki in assay [1] and in assay [4] was over 1 µM throughout.

On to `CCCn1c(=O)c2c(nc3[nH]c(CC)c(C)n32)n(Cc2ccccc2)c1=O`, for which the Selectivity in assay [5], in assay [2] and in assay [3] was over 17 in each case. Moreover, the Ki in assay [1] and in assay [4] was over 1 µM throughout. The same molecule gave an IC50 in assay [6] of over 1 µM.

Usually Ki stands for a measure of affinity in units of concentration, obtained from inhibition or displacement. Broadly, the IC50 is the concentration needed to halve the response being measured. Higher therefore signals a need for much substance.

These data come from ChEMBL document CHEMBL1140322, “New pyrrolo[2,1-f]purine-2,4-dione and imidazo[2,1-f]purine-2,4-dione derivatives as potent and selective human A3 adenosine receptor antagonists” (J Med Chem, 2005).
